According to PubChem BioAssay AID2060625 (Molecular Pharmacology Branch, DTP, NCI, 2025):

System: 186277-243-T-J2-PDC spheroids with HUVEC/MSC, viability
Experiment: Anticancer human tumor 186277-243-T-J2-PDC patient-derived colon adenocarcinoma cell line growth inhibition [CLK]
Conditions: for IC50: curve of first compound; for viability, T/C: stronger effect = lower value
Procedure, shortened: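 Multi-cell-type spheroids combined patient-derived tumor cells with HUVEC endothelial cells and human mesenchymal stem cells. Paired agents were dosed in half-log steps down from about clinical Cmax, or from 10 microM where Cmax was unknown.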
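Note: compound exposure lasted seven days before readout.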
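Throughout, for viability, T/C: 100% = DMSO vehicle control wells.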

SMILES: NC(=O)C(=Cn1cnc(-c2cc(C(F)(F)F)cc(C(F)(F)F)c2)n1)c1cncnc1 + CNC(=O)c1ccc(Nc2nc(OC3CCCC3)c3c(-c4ccc5nc(C)oc5c4)c[nH]c3n2)c(OC)c1
- IC50 (second compound 0.0316 µM): 152 nM
- IC50 (second compound 0.1 µM): 46 nM
- IC50 (second compound 0.316 µM): < 9.49 nM
- IC50 (second compound 1 µM): < 9.49 nM
- IC50 (second compound 3.16 µM): < 9.49 nM
- IC50 (second compound 10 µM): < 9.49 nM
- viability, T/C (second compound 0.0316 µM, first compound 0.00949 µM): 88.5%
- viability, T/C (second compound 0.0316 µM, first compound 0.03 µM): 84.2%
- viability, T/C (second compound 0.0316 µM, first compound 0.0949 µM): 79.1%
- viability, T/C (second compound 0.0316 µM, first compound 0.3 µM): 7.94%
- viability, T/C (second compound 0.0316 µM, first compound 0.949 µM): 3.02%
- viability, T/C (second compound 0.0316 µM, first compound 3 µM): 5.16%
- viability, T/C (second compound 0.1 µM, first compound 0.00949 µM): 54.5%
- viability, T/C (second compound 0.1 µM, first compound 0.03 µM): 55.2%
- viability, T/C (second compound 0.1 µM, first compound 0.0949 µM): 42.1%
- viability, T/C (second compound 0.1 µM, first compound 0.3 µM): 6.58%
- viability, T/C (second compound 0.1 µM, first compound 0.949 µM): 3.16%
- viability, T/C (second compound 0.1 µM, first compound 3 µM): 2.39%
- viability, T/C (second compound 0.316 µM, first compound 0.00949 µM): 36.4%
- viability, T/C (second compound 0.316 µM, first compound 0.03 µM): 37.7%
- viability, T/C (second compound 0.316 µM, first compound 0.0949 µM): 17.6%
- viability, T/C (second compound 0.316 µM, first compound 0.3 µM): 2.14%
- viability, T/C (second compound 0.316 µM, first compound 0.949 µM): 2.54%
- viability, T/C (second compound 0.316 µM, first compound 3 µM): 1.77%
- viability, T/C (second compound 1 µM, first compound 0.00949 µM): 25.6%
- viability, T/C (second compound 1 µM, first compound 0.03 µM): 24.7%
- viability, T/C (second compound 1 µM, first compound 0.0949 µM): 7.44%
- viability, T/C (second compound 1 µM, first compound 0.3 µM): 2.4%
- viability, T/C (second compound 1 µM, first compound 0.949 µM): 1.17%
- viability, T/C (second compound 1 µM, first compound 3 µM): 2.9%
- viability, T/C (second compound 3.16 µM, first compound 0.00949 µM): 26.8%
- viability, T/C (second compound 3.16 µM, first compound 0.03 µM): 24.6%
- viability, T/C (second compound 3.16 µM, first compound 0.0949 µM): 3.89%
- viability, T/C (second compound 3.16 µM, first compound 0.3 µM): 0.59%
- viability, T/C (second compound 3.16 µM, first compound 0.949 µM): 2.87%
- viability, T/C (second compound 3.16 µM, first compound 3 µM): 3.05%
- viability, T/C (second compound 10 µM, first compound 0.00949 µM): 28.3%
- viability, T/C (second compound 10 µM, first compound 0.03 µM): 24.6%
- viability, T/C (second compound 10 µM, first compound 0.0949 µM): 4.11%
- viability, T/C (second compound 10 µM, first compound 0.3 µM): 4.12%
- viability, T/C (second compound 10 µM, first compound 0.949 µM): 0.92%
- viability, T/C (second compound 10 µM, first compound 3 µM): 1.85%

SMILES: Cn1ncnc1[C@H]1c2n[nH]c(=O)c3cc(F)cc(c23)N[C@@H]1c1ccc(F)cc1 + CNC(=O)c1ccc(Nc2nc(OC3CCCC3)c3c(-c4ccc5nc(C)oc5c4)c[nH]c3n2)c(OC)c1
- IC50 (second compound 0.0316 µM): > 100 nM
- IC50 (second compound 0.1 µM): > 100 nM
- IC50 (second compound 0.316 µM): < 0.316 nM
- IC50 (second compound 1 µM): < 0.316 nM
- IC50 (second compound 3.16 µM): < 0.316 nM
- IC50 (second compound 10 µM): < 0.316 nM
- viability, T/C (second compound 0.0316 µM, first compound 0.000316 µM): 94.7%
- viability, T/C (second compound 0.0316 µM, first compound 0.001 µM): 103%
- viability, T/C (second compound 0.0316 µM, first compound 0.00316 µM): 107%
- viability, T/C (second compound 0.0316 µM, first compound 0.01 µM): 105%
- viability, T/C (second compound 0.0316 µM, first compound 0.0316 µM): 107%
- viability, T/C (second compound 0.0316 µM, first compound 0.1 µM): 113%
- viability, T/C (second compound 0.1 µM, first compound 0.000316 µM): 63.8%
- viability, T/C (second compound 0.1 µM, first compound 0.001 µM): 61.7%
- viability, T/C (second compound 0.1 µM, first compound 0.00316 µM): 66.6%
- viability, T/C (second compound 0.1 µM, first compound 0.01 µM): 62.3%
- viability, T/C (second compound 0.1 µM, first compound 0.0316 µM): 69.9%
- viability, T/C (second compound 0.1 µM, first compound 0.1 µM): 68.5%
- viability, T/C (second compound 0.316 µM, first compound 0.000316 µM): 36.9%
- viability, T/C (second compound 0.316 µM, first compound 0.001 µM): 42.5%
- viability, T/C (second compound 0.316 µM, first compound 0.00316 µM): 46.3%
- viability, T/C (second compound 0.316 µM, first compound 0.01 µM): 46.2%
- viability, T/C (second compound 0.316 µM, first compound 0.0316 µM): 49.4%
- viability, T/C (second compound 0.316 µM, first compound 0.1 µM): 48.6%
- viability, T/C (second compound 1 µM, first compound 0.000316 µM): 27%
- viability, T/C (second compound 1 µM, first compound 0.001 µM): 31.4%
- viability, T/C (second compound 1 µM, first compound 0.00316 µM): 31.4%
- viability, T/C (second compound 1 µM, first compound 0.01 µM): 33.2%
- viability, T/C (second compound 1 µM, first compound 0.0316 µM): 40%
- viability, T/C (second compound 1 µM, first compound 0.1 µM): 30.2%
- viability, T/C (second compound 3.16 µM, first compound 0.000316 µM): 27.1%
- viability, T/C (second compound 3.16 µM, first compound 0.001 µM): 27.8%
- viability, T/C (second compound 3.16 µM, first compound 0.00316 µM): 31.1%
- viability, T/C (second compound 3.16 µM, first compound 0.01 µM): 30.9%
- viability, T/C (second compound 3.16 µM, first compound 0.0316 µM): 33%
- viability, T/C (second compound 3.16 µM, first compound 0.1 µM): 30.7%
- viability, T/C (second compound 10 µM, first compound 0.000316 µM): 30.3%
- viability, T/C (second compound 10 µM, first compound 0.001 µM): 29.3%
- viability, T/C (second compound 10 µM, first compound 0.00316 µM): 31.9%
- viability, T/C (second compound 10 µM, first compound 0.01 µM): 30.9%
- viability, T/C (second compound 10 µM, first compound 0.0316 µM): 36.2%
- viability, T/C (second compound 10 µM, first compound 0.1 µM): 32.3%
